Test results from patent publication US12377112B2, “Methods of treating neurocognitive disorders, chronic pain and reducing inflammation” (priority 2019, dated 2025).
Marks after values point to notes of the source that are not given here.

Assays:
healthy subjects = test: Phase 1 study: Positive and Negative Affect Schedule (PANAS); assay type: in vivo, human; conditions: for PANAS-Negative, change from baseline, LS mean / PANAS-Positive, change from baseline, LS mean: Post-Treatment Day 0
Source text: In some embodiments, the Positive and Negative Affect Schedule (PANAS) is used to evaluate the safety and/or efficacy of psilocybin. The PANAS measures the acute emotional drug effects and comprises 2 mood scales that measure positive and negative affect. Positive affect refers to the propensity to experience positive emotions and interact with others positively. Negative affect involves experiencing the world in a more negative way. Subjects respond to 10 questions associated with negative affect and 10 questions associated with positive affect. The questions are scaled using a 5-point scale that ranges from “slightly or not at all (1)” to “extremely (5)”. A total higher score on the positive affect questions indicates more of a positive effect while a lower score on the negative affect questions indicates less of a negative affect. In some embodiments, after treating according to the methods of the disclosure, a subject experiences a decrease in negative affect score of the PANAS, between about 5% and about 100%, for example about 5%, about 10%, about 15%, about 20%, about 25%, about 30%, about 35%, about 40%, about 45%, about 50%, about 55%, about 60%, about 65%, about 70%, about 75%, about 80%, about 85%, about 90%, about 95%, or about 100%, compared to prior to treatment. In some embodiments, after treating according to the methods of the disclosure, a subject experiences an increase in positive affect score of the PANAS, between about 5% and about 100%, for example about 5%, about 10%, about 15%, about 20%, about 25%, about 30%, about 35%, about 40%, about 45%, about 50%, about 55%, about 60%, about 65%, about 70%, about 75%, about 80%, about 85%, about 90%, about 95%, or about 100%, about 110%, about 120%, about 130%, about 140%, about 150%, about 160%, about 170%, about 180%, about 190%, about 200%, about 210%, about 220%, about 230%, about 240%, about 250%, about 260%, about 270%, about 280%, about 290%, or about 300%, or more, compared to prior to treatment.
The effects of psilocybin usually started about 20 to 30 min after administration, becoming most intense in the first 90 to 120 min and gradually subsiding in about 5 to 6 hours. The subjects were asked to remain in the room for the duration of the session regardless of the intensity of the effects, preferably lying down and mostly silent unless they have a concern or need to communicate a discomfort or seek reassurance from the therapist, or use the restroom. A light meal and fruit were available for the subject after the session. After the acute effects of study drug administration had subsided, all subjects were assessed for safety and asked to complete the following assessments: PANAS and 5D-ASC. Medications used, if any, during the study drug administration session, and adverse events were recorded. The subjects also discussed their psilocybin experience with their therapist. The subject was discharged 6 to 8 hours post dose when, in the opinion of the investigator, the acute effects of psilocybin were resolved. After the acute effects of study drug administration subsided, subjects returned home accompanied by a family member, friend, or chaperone. The therapists checked with the subjects by phone at the end of the day to ensure that the subject arrived home safely.
The Positive and Negative Affects Schedule (PANAS) score was also evaluated to measure the effect of psilocybin.

male C57BL/6 mice = test: Chronic constriction injury (CCI) model of neuropathic pain, von Frey paw withdrawal threshold; assay type: in vivo, mouse
Experimental: To determine whether psilocybin may alleviate chronic neuropathic pain, various doses of psilocybin were tested in a mouse model of chronic constriction injury (CCI).
Male C57BL/6 mice (age 6-7 weeks, source: Charles River UK) were housed in standard caging in groups of 2-4, with free access to food (5CR4, Purina) and water (except during placement in the test box) on a 12/12 light/dark cycle.
All animals underwent behavioral testing of mechanical allodynia on three consecutive days (Day −2, Day−1 and Day 0) prior to surgery in order to determine the baseline withdrawal thresholds. Briefly, Static mechanical (tactile) allodynia was assessed by measurement of withdrawal threshold using calibrated (force; g) von-Frey monofilaments (Touch-Test Sensory Evaluator; Scientific Marketing Associates) applied to the plantar surface of the hind-paw. The animals were placed in individual Perspex boxes on a raised metal mesh for 30-40 minutes before the test. A series of graduated von Frey hairs (0.07, 0.16, 0.4, 0.6 and 1 g) was applied in sequence with a protocol of 1 second on 1 second off, repeated 10 times. Each hair was applied perpendicularly to the center of the ventral surface of the paw until it slightly bends. The force applied to the hind-paw of the animal to induce 5 responses out of 10 trials was recorded as paw withdrawal threshold (PWT). Three baseline paw withdrawal thresholds were taken on ipsilateral paws. The mean of the last two readings used as the baseline withdrawal threshold.
Subsequently, surgery was performed under anesthesia (Isoflurane mixed with oxygen, 3:1, 2 L/min) to tie three loose ligatures of prolene (7-0, Ethicon) around the sciatic nerve, with 1 mm spacing between each. The nerve was then returned below the muscle layer and the wound closed using absorbable sutures (Vicryl).
Following recovery from surgery, Von Frey assessment of mechanical allodynia was taken on days 19 and 22. Animals were then ranked and randomized (based on a Latin square design) to treatment groups according to the percentage change (compared to pre-surgery baseline) of the mean mechanical withdrawal threshold observed on days 19 and 22. Only those animals showing a PWT percentage change of >50% from pre-surgery baseline were included in the study.
On day 23, the animals were dosed with psilocybin (1, 3 or 10 mg/kg by intraperitoneal injection) or vehicle (10 mL/kg by intraperitoneal injection). Nerve pain medication Pregabalin (15 mg/kg administered orally) was also used as a positive control. Allodynia was then assessed at 0.5, 4 and 24 hours post-treatment timepoint (PTT).

CN(C)CCc1c[nH]c2cccc(OP(=O)(O)O)c12 [Psilocybin, psilocybin]
PANAS negative affect, mean increase (healthy subjects; 25 mg, baseline to day of dosing): 1.3 | PANAS-Negative, change from baseline, LS mean (healthy subjects; Psilocybin 10 mg): −0.6 | PANAS-Positive, change from baseline, LS mean (healthy subjects; Psilocybin 10 mg): 0.7 | PANAS-Negative, change from baseline, LS mean (healthy subjects; Psilocybin 25 mg): 1.3 | PANAS-Positive, change from baseline, LS mean (healthy subjects; Psilocybin 25 mg): −0.4 | Force-induced paw withdrawal, mean (male C57BL/6 mice; 1 mg/kg IP group, D19-22 Neuropathic baseline (before dosing)): 0.16 g | Force-induced paw withdrawal, mean (male C57BL/6 mice; 1 mg/kg IP group, D-2 D-1 Baseline (before surgery and dosing)): 0.72 g | Force-induced paw withdrawal, mean (male C57BL/6 mice; 1 mg/kg IP, D23 0.5 hours PTT): 0.16 g | Force-induced paw withdrawal, mean (male C57BL/6 mice; 1 mg/kg IP, D23 4 hours PTT): 0.16 g | Force-induced paw withdrawal, mean (male C57BL/6 mice; 1 mg/kg IP, D24 24 hours PTT): 0.15 g | Force-induced paw withdrawal, mean (male C57BL/6 mice; 3 mg/kg IP group, D19-22 Neuropathic baseline (before dosing)): 0.16 g | Force-induced paw withdrawal, mean (male C57BL/6 mice; 3 mg/kg IP group, D-2 D-1 Baseline (before surgery and dosing)): 0.68 g | Force-induced paw withdrawal, mean (male C57BL/6 mice; 3 mg/kg IP, D23 0.5 hours PTT): 0.22 g | Force-induced paw withdrawal, mean (male C57BL/6 mice; 3 mg/kg IP, D23 4 hours PTT): 0.15 g | Force-induced paw withdrawal, mean (male C57BL/6 mice; 3 mg/kg IP, D24 24 hours PTT): 0.25 g | Force-induced paw withdrawal, mean (male C57BL/6 mice; 10 mg/kg IP group, D19-22 Neuropathic baseline (before dosing)): 0.17 g | Force-induced paw withdrawal, mean (male C57BL/6 mice; 10 mg/kg IP group, D-2 D-1 Baseline (before surgery and dosing)): 0.79 g | Force-induced paw withdrawal, mean (male C57BL/6 mice; 10 mg/kg IP, D23 0.5 hours PTT): 0.38* g | Force-induced paw withdrawal, mean (male C57BL/6 mice; 10 mg/kg IP, D23 4 hours PTT): 0.51* g | Force-induced paw withdrawal, mean (male C57BL/6 mice; 10 mg/kg IP, D24 24 hours PTT): 0.25 g
